From patent publication US11286242B2 (priority 2018, dated 2022)

Tests used:
[1] = tested on: Phakopsora pachyrhizi; assay: Phakopsora pachyrhizi test in soybean, preventive spray; format: in vivo; conditions: preventive spray on soybean plants, inoculated one day after treatment, greenhouse 25° C., 90% relative humidity, read-out: control (efficacy, disease severity rating) compared to the untreated check
Protocol: Example 8: Phakopsora pachyrhizi Test in Soybean
Compounds were dissolved in 2% DMSO/Acetone & then mixed with water to the calibrated spray volume of 50 mL and poured into the spray bottles for further applications.
To test the preventive activity of compounds, healthy young soybean plants raised in the greenhouse were sprayed with active compound preparation at the stated application rates inside the spray cabinets using hallowcone nozzles. One day after treatment, the plants were inoculated with spore suspension containing 2.1×10^6 Phakopsora pachyrhizi inoculum. The inoculated plants were then kept in greenhouse chamber at 25° C. temperature & 90% relative humidity for disease expression.
A visual assessment of compound's performance was carried out by rating the disease severity (0-100% scale) on treated plants on 3, 7, 10 & 15 days after application. Efficacy (% control) of the compounds was calculated by comparing the disease rating in the treatment with the one of the untreated control. The sprayed plants were also assessed for compound's plant compatibility by recording symptoms like necrosis, chlorosis & stunting.

[2] = tested on: Pyricularia oryzae; assay: microbe, parasite or virus in culture; format: cell-based; conditions: 168 h, read-out: control compared to the untreated check

SMILES	pest or weed control at 500 ppm [1] [%]	inhibition of growth at 300 ppm [2] [%]
CS(=O)(=Nc1ccc(-c2noc(C(F)(F)F)n2)nc1)c1ccccn1 (centres unmarked) [Compound 110, methyl(pyridin-2-yl)((6-(5-(trifluoromethyl)-1,2,4-oxadiazol-3-yl)pyridin-3-yl)imino)-λ^6-sulfanone]	> 90	
Cc1csc(S(C)(=O)=NC(=O)c2ccc(-c3noc(C(F)(F)F)n3)cc2)n1 (centres unmarked) [Compound 53, N-(methyl(4-methylthiazol-2-yl)(oxo)-λ^6-sulfaneylidene)-4-(5-(trifluoromethyl)-1,2,4-oxadiazol-3-yl)benzamide]	> 90	
CS(=O)(=NC(=O)c1ccc(-c2noc(C(F)(F)F)n2)cc1)c1ccc(C#N)cc1 (centres unmarked) [Compound 42, N-((4-cyanophenyl)(methyl)(oxo)-λ^6-sulfaneylidene)-4-(5-(trifluoromethyl)-1,2,4-oxadiazol-3-yl)benzamide]	> 90	
CS(=O)(=Nc1ccc(-c2noc(C(F)(F)F)n2)nc1)c1ccc(C(F)(F)F)cc1 (centres unmarked) [Compound 124, methyl((6-(5-(trifluoromethyl)-1,2,4-oxadiazol-3-yl)pyridin-3-yl)imino)(4-(trifluoromethyl)phenyl)-λ^6-sulfanone]		> 70
CS(=O)(=NCc1cccc(-c2noc(C(F)(F)F)n2)c1)c1ccc(Br)cc1F (centres unmarked) [Compound 147, (4-bromo-2-fluorophenyl)(methyl)((3-(5-(trifluoromethyl)-1,2,4-oxadiazol-3-yl)benzyl)imino)-λ^6-sulfanone]		> 70
CS(=O)(=NC(=O)c1ccc(-c2noc(C(F)(F)F)n2)cc1)c1ccccn1 (centres unmarked) [Compound 2, N-(methyl(oxo)(pyridin-2-yl)-λ^6-sulfanylidene)-4-(5-(trifluoromethyl)-1,2,4-oxadiazol-3-yl)benzamide]	> 90	
O=C(N=S1(=O)CCOCC1)c1ccc(-c2noc(C(F)(F)F)n2)cc1 [Compound 58, N-(4-oxido-1,4λ^6-oxathian-4-ylidene)-4-(5-(trifluoromethyl)-1,2,4-oxadiazol-3-yl)benzamide]	> 90	
CS(=O)(=NCc1ccc(-c2noc(C(F)(F)F)n2)cc1)c1ccc(Cl)cc1 (centres unmarked) [Compound 28, (4-chlorophenyl)(methyl)((4-(5-(trifluoromethyl)-1,2,4-oxadiazol-3-yl)benzyl)imino)-λ^6-sulfanone]	> 90	
CS(=O)(=NCc1ccc(-c2noc(C(F)(F)F)n2)cc1)c1ccc(C(F)(F)F)cc1 (centres unmarked) [Compound 25, methyl((4-(5-(trifluoromethyl)-1,2,4-oxadiazol-3-yl)benzyl)imino)(4-(trifluoromethyl)phenyl)-λ^6-sulfanone]	> 90	
CS(=O)(Cc1ccccc1F)=NC(=O)c1ccc(-c2noc(C(F)(F)F)n2)cc1 (centres unmarked) [Compound 38, N-((2-fluorobenzyl)(methyl)(oxo)-λ^6-sulfaneylidene)-4-(5-(trifluoromethyl)-1,2,4-oxadiazol-3-yl)benzamide]	> 90	
CS(=O)(=Nc1ccc(-c2noc(C(F)(F)F)n2)cc1)c1ccccc1F (centres unmarked) [Compound 12, (2-fluorophenyl)(methyl)((4-(5-(trifluoromethyl)-1,2,4-oxadiazol-3-yl)phenyl)imino)-λ^6-sulfanone]	> 90	
Cc1ccccc1CS(C)(=O)=NC(=O)c1ccc(-c2noc(C(F)(F)F)n2)cc1 (centres unmarked) [Compound 40, N-(methyl(2-methylbenzyl)(oxo)-λ^6-sulfaneylidene)-4-(5-(trifluoromethyl)-1,2,4-oxadiazol-3-yl)benzamide]	> 90	
CS(=O)(=NC(=O)c1ccc(-c2noc(C(F)(F)F)n2)cc1)c1cccc(F)c1 (centres unmarked) [Compound 5, N-((3-fluorophenyl)(methyl)(oxo)-λ^6-sulfanylidene)-4-(5-(trifluoromethyl)-1,2,4-oxadiazol-3-yl)benzamide]	> 90	
CS(=O)(Cc1ccc(C(F)(F)F)cc1)=NC(=O)c1ccc(-c2noc(C(F)(F)F)n2)cc1 (centres unmarked) [Compound 50, N-(methyl(oxo)(4-(trifluoromethyl)benzyl)-λ^6-sulfaneylidene)-4-(5-(trifluoromethyl)-1,2,4-oxadiazol-3-yl)benzamide]	> 90	
CS(=O)(Cc1c(Cl)cccc1Cl)=NC(=O)c1ccc(-c2noc(C(F)(F)F)n2)cc1 (centres unmarked) [Compound 51, N-((2,6-dichlorobenzyl)(methyl)(oxo)-λ^6-sulfaneylidene)-4-(5-(trifluoromethyl)-1,2,4-oxadiazol-3-yl)benzamide]	> 90	
CS(=O)(=NC(=O)c1ccc(-c2noc(C(F)(F)F)n2)cc1)c1ccncc1 (centres unmarked) [Compound 4, N-(methyl(oxo)(pyridin-4-yl)-λ^6-sulfanylidene)-4-(5-(trifluoromethyl)-1,2,4-oxadiazol-3-yl)benzamide]	> 90	

SMILES	pest or weed control at 500 ppm [1] [%]	inhibition of growth at 300 ppm [2] [%]
CS(=O)(=NCc1ccc(-c2noc(C(F)(F)F)n2)cc1)c1ccccc1 (centres unmarked) [Compound 26, methyl(phenyl)((4-(5-(trifluoromethyl)-1,2,4-oxadiazol-3-yl)benzyl)imino)-λ^6-sulfanone]	> 90	
CS(=O)(=NC(=O)c1ccc(-c2noc(C(F)(F)F)n2)cc1)c1ccccc1 (centres unmarked) [Compound 9, N-(methyl(oxo)(phenyl)-λ^6-sulfanylidene)-4-(5-(trifluoromethyl)-1,2,4-oxadiazol-3-yl)benzamide]	> 90	
CS(=O)(=NC(=O)c1ccc(-c2noc(C(F)(F)F)n2)cc1)c1ccc(C(F)(F)F)cc1 (centres unmarked) [Compound 7, N-(methyl(oxo)(4-(trifluoromethyl)phenyl)-λ^6-sulfanylidene)-4-(5-(trifluoromethyl)-1,2,4-oxadiazol-3-yl)benzamide]	> 90	
CS(=O)(=NC(=O)c1ccc(-c2noc(C(F)(F)F)n2)cc1)c1ccc(Cl)cc1 (centres unmarked) [Compound 1, N-((4-chlorophenyl)(methyl)(oxo)-λ^6-sulfanylidene)-4-(5-(trifluoromethyl)-1,2,4-oxadiazol-3-yl)benzamide]	> 90	
CS(=O)(Cc1c(Cl)cccc1Cl)=Nc1ccc(-c2noc(C(F)(F)F)n2)cc1 (centres unmarked) [Compound 91, (2,6-dichlorobenzyl)(methyl)((4-(5-(trifluoromethyl)-1,2,4-oxadiazol-3-yl)phenyl)imino)-λ^6-sulfanone]	> 90	
CS(=O)(Cc1ccc(C#N)cc1)=NC(=O)c1ccc(-c2noc(C(F)(F)F)n2)cc1 (centres unmarked) [Compound 31, N-((4-cyanobenzyl)(methyl)(oxo)-λ^6-sulfaneylidene)-4-(5-(trifluoromethyl)-1,2,4-oxadiazol-3-yl)benzamide]	> 90	
Cc1ccc(S(C)(=O)=NC(=O)c2ccc(-c3noc(C(F)(F)F)n3)cc2)cc1 (centres unmarked) [Compound 30, N-(methyl(oxo)(p-tolyl)-λ^6-sulfaneylidene)-4-(5-(trifluoromethyl)-1,2,4-oxadiazol-3-yl)benzamide]	> 90	
COc1ccc(S(C)(=O)=NC(=O)c2ccc(-c3noc(C(F)(F)F)n3)cc2)cc1 (centres unmarked) [Compound 10, N-((4-methoxyphenyl)(methyl)(oxo)-λ^6-sulfanylidene)-4-(5-(trifluoromethyl)-1,2,4-oxadiazol-3-yl)benzamide]	> 90	
CS(=O)(=NC(=O)c1ccc(-c2noc(C(F)(F)F)n2)cc1)c1ccc(F)cc1 (centres unmarked) [Compound 6, N-((4-fluorophenyl)(methyl)(oxo)-λ^6-sulfanylidene)-4-(5-(trifluoromethyl)-1,2,4-oxadiazol-3-yl)benzamide]	> 90	
CS(=O)(Cc1ccc(F)cc1)=Nc1ccc(-c2noc(C(F)(F)F)n2)cc1 (centres unmarked) [Compound 89, (4-fluorobenzyl)(methyl)((4-(5-(trifluoromethyl)-1,2,4-oxadiazol-3-yl)phenyl)imino)-λ^6-sulfanone]	> 90	
CS(=O)(Cc1ccc(Br)cc1)=Nc1ccc(-c2noc(C(F)(F)F)n2)cc1 (centres unmarked) [Compound 92, (4-bromobenzyl)(methyl)((4-(5-(trifluoromethyl)-1,2,4-oxadiazol-3-yl)phenyl)imino)-λ^6-sulfanone]	> 90	
CS(=O)(=NC(=O)c1ccc(-c2noc(C(F)(F)F)n2)cc1)c1ccc(F)c(F)c1 (centres unmarked) [Compound 57, N-((3,4-difluorophenyl)(methyl)(oxo)-λ^6-sulfaneylidene)-4-(5-(trifluoromethyl)-1,2,4-oxadiazol-3-yl)benzamide]	> 90	
CS(=O)(=NC(=O)c1ccc(-c2noc(C(F)(F)F)n2)cc1)c1c(F)cccc1F (centres unmarked) [Compound 36, N-((2,6-difluorophenyl)(methyl)(oxo)-λ^6-sulfaneylidene)-4-(5-(trifluoromethyl)-1,2,4-oxadiazol-3-yl)benzamide]	> 90	
CS(=O)(Cc1c(F)cccc1F)=Nc1ccc(-c2noc(C(F)(F)F)n2)cc1 (centres unmarked) [Compound 85, (2,6-difluorobenzyl)(methyl)((4-(5-(trifluoromethyl)-1,2,4-oxadiazol-3-yl)phenyl)imino)-λ^6-sulfanone]	> 90	
Cc1nnc(S(C)(=O)=NC(=O)c2ccc(-c3noc(C(F)(F)F)n3)cc2)s1 (centres unmarked) [Compound 54, N-(methyl(5-methyl-1,3,4-thiadiazol-2-yl)(oxo)-λ^6-sulfaneylidene)-4-(5-(trifluoromethyl)-1,2,4-oxadiazol-3-yl)benzamide]	> 90	
CS(=O)(=Nc1ccc(-c2noc(C(F)(F)F)n2)cc1)c1ccc(OC(F)(F)F)cc1 (centres unmarked) [Compound 21, methyl(4-(trifluoromethoxy)phenyl)((4-(5-(trifluoromethyl)-1,2,4-oxadiazol-3-yl)phenyl)imino)-λ^6-sulfanone]	> 90	
